Assay results published in patent US10758542B2, “Substituted pyrazolo[l,5-a]pyrimidine compounds as Trk kinase inhibitors” (Array BioPharma Inc., priority 2009, dated 2020).

Molecular target: Human Jak2 kinase domain (Homo sapiens (Human), UniProt O60674)
Assay: Jak2 inhibition assay (Omnia kinase)
Format: biochemical
Conditions: read-out: Jak2 Enzyme (% inhibition at 1000 nM), Table 1; at 1000 nM test compound
Text: The assays described in Examples C, D, E and F for the determination of JAK1, JAK2, JAK3 and Tyk2 kinase activity, respectively, utilized the Omnia® Kinase fluorescence peptide substrate-based technology (Invitrogen). The specific components of the assay mixture are described in Examples C, D and E. […] Two-μL aliquots of these were transferred to a fresh plate for a ten-fold intermediate dilution with assay buffer. […] Human Jak2 kinase domain comprising amino acids 808-1132 was purchased from Invitrogen Corporation, Carlsbad, Calif.

Human Jak2 kinase domain, sequence (O60674 808-1132): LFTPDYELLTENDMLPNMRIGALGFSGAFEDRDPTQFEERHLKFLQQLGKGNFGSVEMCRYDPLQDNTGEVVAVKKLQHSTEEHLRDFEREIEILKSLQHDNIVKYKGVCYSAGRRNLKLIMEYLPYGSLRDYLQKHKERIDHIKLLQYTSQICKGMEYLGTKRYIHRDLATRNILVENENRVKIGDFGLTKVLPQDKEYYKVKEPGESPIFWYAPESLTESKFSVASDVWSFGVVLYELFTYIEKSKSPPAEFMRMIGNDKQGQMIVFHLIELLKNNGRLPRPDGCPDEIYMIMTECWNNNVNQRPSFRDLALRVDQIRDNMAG

`O=C(N[C@@H]1CCC[C@H]1O)c1cnn2ccc(N3CCC[C@@H]3c3cncc(F)c3)nc12` [Example 133, 5-((R)-2-(5-fluoropyridin-3-yl)pyrrolidin-1-yl)-N-((1R,2R)-2-hydroxycyclopentyl)pyrazolo[1,5-a]pyrimidine-3-carboxamide] gave an inhibition at 1 µM of 14.4%.

Molecule `CCc1ncc(F)cc1[C@H]1CCCN1c1ccn2ncc(C(=O)N[C@H]3CC[C@H](O)C3)c2n1` [Example 200, 5-((R)-2-(2-ethyl-5-fluoropyridin-3-yl)pyrrolidin-1-yl)-N-((1S,3S)-3-hydroxycyclopentyl)pyrazolo [1,5-a]pyrimidine-3-carboxamide] has an inhibition at 1 µM of 12.5%.

Work on `CC1(O)CCC(NC(=O)c2cnn3ccc(N4CCC[C@@H]4c4cc(F)ccc4F)nc23)CC1` (stereo partly drawn) [Example 51, 5-((R)-2-(2,5-difluorophenyl)pyrrolidin-1-yl)-N-(4-hydroxy-4-methylcyclohexyl)pyrazolo[1,5-a]pyrimidine-3-carboxamide] yielded an inhibition at 1 µM of 82.5%.

With `C[C@@H](NC(=O)c1cnn2ccc(N3CCC[C@@H]3c3cncc(F)c3)nc12)C(F)(F)F` [Example 129, 5-((R)-2-(5-fluoropyridin-3-yl)pyrrolidin-1-yl)-N-((R)-1,1,1-trifluoropropan-2-yl)pyrazolo[1,5-a]pyrimidine-3-carboxamide] the inhibition at 1 µM was 25.2%.
